Measurements from article PMC8597745, “The Antimicrobial Peptide MK58911-NH2 Acts on Planktonic, Biofilm, and Intramacrophage Cells of Cryptococcus neoformans” (Antimicrobial Agents and Chemotherapy, 2021).
In brackets after ≈: the same amount, converted by molar mass. No end group written: not given here.

Tests used:
[1] = tested on: C. neoformans; assay: Zebrafish embryo immersion infection model, fungal burden (CFU); format: in vivo, zebrafish embryos; details: immersion infection 1 × 10^6 cells/ml, treatment at the MIC for 24 h
Description: (§1) A zebrafish embryo infection model by immersion was used, as previously described for C. albicans, with some modifications ([22]). The housing and breeding of the fish used in this study received appropriate institutional approvals (permit number 01.0082.2014). Briefly, 15 zebrafish embryos at 24 h postfertilization (hpf) and cultured in embryo medium at 28°C were used. Embryos were coincubated in wells with C. neoformans at 1 × 10^6 cells/ml by immersion. The plate was incubated at 28°C at 80 rpm for 24 h. Subsequently, the embryos were washed twice with embryo medium and transferred to a 96-well plate (1 embryo/well). Next, 100 μl of MK58911-NH2, amphotericin B, and fluconazole, all diluted in embryo medium and at the MIC, was added to the wells. The plate was incubated at 28°C at 80 rpm for 24 h. After that, the embryos were lysed individually in 2% Triton X-100–PBS using a 26-gauge needle. A […] dilution was performed in PBS, and 10 μl was plated onto Sabouraud dextrose agar containing 50 mg/liter chloramphenicol. […] The groups were tested in triplicate, and two independent experiments were performed. Images of some embryos 4 h after infection with C. neoformans, labeled with calcofluor white, were acquired with an In Cell Analyzer 2000 microscope (GE).

[2] = tested on: C. neoformans biofilm formation; assay: Antibiofilm activity, biofilm formation at 0 h (XTT reduction); format: cell-based, Cryptococcus neoformans
Description: (§4) Briefly, C. neoformans was grown in Sabouraud dextrose broth at 30°C at 150 rpm for 24 h. To evaluate the effect of peptides on biofilm formation, a fungal suspension of 1 × 10^7 cells/ml in minimal medium (20 mg/ml thiamine, 30 mM glucose, 26 mM glycine, 20 mM MgSO4·7H2O, 58.8 mM KH2PO4) was prepared, and 100 μl of the suspension was added to individual wells of 96-well polystyrene plates (TPP, Switzerland). […] The plate was incubated at 37°C for 48 h. To evaluate the effect of the peptides on the mature biofilm, 100 μl of the fungal suspension was added to individual wells of a 96-well plate, and the plate was incubated at 37°C for 48 h. After that period, the supernatant was removed, and the peptides and drugs were added. The plate was again incubated at 37°C for 48 h. The metabolic activity of the biofilms was quantified by the 2,3-bis(2-methoxy-4-nitro-5-sulfophenyl)-5-[(phenylamino)carbonyl]-2H-tetrazolium hydroxide (XTT) reduction assay. For this, a solution with 50 μl of XTT (1 mg/ml in PBS) and 4 μl of menadione (1 mM in ethanol; Sigma-Aldrich, São Paulo, SP, Brazil) was added to each well of the 96-well plate. After 3 h of incubation at 37°C, the fluorescence intensity was measured using a microplate reader (BioTek) at 490 nm. Subsequently, the percentage of metabolic activity of the biofilm treated with peptides/drugs was compared to that of the untreated control. […]

[3] = tested on: intramacrophage C. neoformans; assay: Intramacrophage activity (J774 macrophages infected with C. neoformans, CFU); format: cell-based, Cryptococcus neoformans; details: treatment at the MIC, 24 h; control 4.5 × 10^3 CFU/well
Description: The medium was used as a positive control. […] Three independent experiments were performed.

[4] = tested on: C. gattii; assay: microbe, parasite or virus in culture; details: 48 h; for MIC: Cryptococcus gattii, read-out: C. gattii MIC; for C. gattii MIC: 37°C, RPMI 1640, visual reading
Description: (§2) C. neoformans ATCC 90112 and C. gattii ATCC 56990 were purchased from the collection of the Laboratory of Clinical Mycology, Faculty of Pharmaceutical Sciences of UNESP, Araraquara, Brazil. Cryptococcus species were grown at 30°C for 48 to 72 h in Sabouraud dextrose agar.
(§3) Anti-Cryptococcus activity was determined by the broth microdilution method according to document M27-A3 from the Clinical and Laboratory Standards Institute ([47]). Briefly, 100 μl of a fungal suspension at […] in RPMI 1640 medium was added to each well of the 96-well plate. Subsequently, 100 μl of MK58911-NH2, MK58911(1–7)-OH, MK58911(8–14)-NH2, MK58911(4–11)-OH, and MH58911 (0.48 to 250 μg/ml); amphotericin B (0.016 to 8 μg/ml); and fluconazole (0.063 to 32 μg/ml), all diluted in RPMI 1640 medium, was added to the plate. The fungal suspension and RPMI 1640 medium were used as the positive and negative controls, respectively. The plate was incubated at 37°C at 150 rpm for 48 h. Next, fungal growth was visually observed, and the MIC was determined. Three independent experiments were performed.

[5] = tested on: C. neoformans; assay: microbe, parasite or virus in culture; details: 48 h; for MIC: Cryptococcus neoformans, read-out: C. neoformans MIC; for C. neoformans MIC: 37°C, RPMI 1640, visual reading
Description: as §2, §3

[6] = tested on: C. neoformans mature biofilm; assay: Antibiofilm activity, mature biofilm at 48 h (XTT reduction); format: cell-based, Cryptococcus neoformans
Description: as §4

[7] = in vitro; details: mouse, J774 macrophages
Description: (§5) The impact of peptides on the viability of pulmonary fibroblasts (MRC5) was also evaluated. Cells were cultured in Dulbecco’s high-glucose modified Eagle medium (DMEM; Gibco, Thermo Fisher Scientific) supplemented with 10% fetal bovine serum (FBS) in 25-cm^2 flasks. For the assay, cells were seeded into 96-well plates at 5 × 10^4 cells/well. The cells were left to grow at 37°C in a 5% CO2 incubator for 24 h until they reached confluence. […] DMEM and dimethyl sulfoxide (DMSO) were used as the positive and negative controls, respectively. The plates were then incubated at 37°C in a 5% CO2 incubator for 24 h. Resazurin (0.01%; Sigma-Aldrich) was then used to assess the viability of the cells according to the manufacturer’s instructions. After 4 h of incubation at 37°C in a 5% CO2 incubator, the fluorescence intensity was measured using a microplate reader (BioTek) at 570 to 600 nm. The fluorescence values were normalized by the positive control and expressed as a percentage of metabolic activity. Values for the 50% inhibitory concentration (IC50) were calculated. Three independent experiments were performed.
The impact of peptides on the viability of macrophages (J774) was also evaluated as described above for MRC5 cells.

[8] = in vitro; details: human, MRC5 pulmonary fibroblasts
Description: as §5

[9] = tested on: zebrafish embryos; assay: Survival of infected zebrafish embryos under treatment; format: in vivo; details: treatment at the MIC for 24 h
Description: as §1

Molecule: C[C@@H]1[C@H](O)[C@@H](C)/C=C/C=C/C=C/C=C/C=C/C=C/C=C/[C@H](O[C@@H]2O[C@H](C)[C@@H](O)[C@H](N)[C@@H]2O)C[C@@H]2O[C@](O)(C[C@@H](O)C[C@@H](O)[C@H](O)CC[C@@H](O)C[C@@H](O)CC(=O)O[C@H]1C)C[C@H](O)[C@H]2C(=O)O [Amphotericin B]
- fungal burden (CFU) of embryos' chorion vs untreated control [1]: significant reduction in CFU
- concentration at which formation of C. neoformans biofilms can be prevented [2]: > 0.5 µg/mL
- intramacrophagic fungal burden (average) [3]: 1.1 × 10^3 CFU/well
- MIC [4]: 0.125 µg/mL (≈ 0.135 µM)
- MIC [5]: 0.125 µg/mL (≈ 0.135 µM)
- concentration at which mature biofilms can be inhibited ([6]; mature biofilms): > 2 µg/mL

Molecule: OC(Cn1cncn1)(Cn1cncn1)c1ccc(F)cc1F [Fluconazole]
- fungal burden (CFU) of embryos' chorion vs untreated control [1]: did not reduce the fungal burden
- intramacrophagic fungal burden (average) [3]: 1.8 × 10^3 CFU/well
- MIC [4]: 8 µg/mL (≈ 26.1 µM)
- MIC [5]: 1 µg/mL (≈ 3.27 µM)
- susceptibility of C. neoformans biofilms ([6]; biofilms in vitro, corroborates ref 13): resistant

Molecule: INWLHIAHHVHGML-NH2 [MH58911-NH2, INWLHIAHHVHGML-NH2]
- C. gattii MIC [4]: >250 µg/mL
- C. neoformans MIC [5]: >250 µg/mL
- IC50 at 24 h [7]: > 250 µg/mL
- IC50 at 24 h [8]: > 500 µg/mL

Molecule: INWLKIA-OH [MK58911(1–7)-OH, INWLKIA-OH]
- IC50 at 24 h [8]: > 500 µg/mL

Molecule: INWLKIAKKVKGML-NH2 [MK58911-NH2, INWLKIAKKVKGML-NH2]
- C. gattii MIC [4]: 15.63 µg/mL
- C. neoformans MIC [5]: 31.25 µg/mL
- IC50 at 24 h [7]: 62.5 µg/mL
- IC50 at 24 h [8]: > 500 µg/mL
- embryo survival under treatment [9]: All embryos survived

Molecule: KKVKGML-NH2 [MK58911(8–14)-NH2, KKVKGML-NH2]
- C. gattii MIC [4]: >250 µg/mL
- C. neoformans MIC [5]: >250 µg/mL
- IC50 at 24 h [8]: > 500 µg/mL

Molecule: LKIAKKVK-OH [MK58911(4–11)-OH, LKIAKKVK-OH]
- IC50 at 24 h [8]: > 500 µg/mL
